Measured values published in paper PMC9151520 (Archives of Toxicology, 2022).
Several values for one entry are separate records, joined by “and”; a condition that tells them apart may be missing. Equal values may be shown once. Where a name gives a salt, the structure may show the parent alone. Read-outs that look alike come from different tables or passages of the source.

Legend:
[1] = test system: p53 signaling (p53RE-bla HCT-116 cells); experiment: cells; type: cell-based
[2] = test system: p53 signaling (p53RE-bla HCT-116 cells); experiment: cells; type: cell-based; settings: Homo sapiens, HCT-116, 0.5 h
[3] = test system: p53 signaling (p53RE-bla HCT-116 cells); experiment: cells; type: cell-based; settings: Homo sapiens, HCT-116
[4] = test system: p53 signaling (p53RE-bla HCT-116 cells)
[5] = test system: p53 signaling (p53RE-bla HCT-116 cells); experiment: cells; settings: Homo sapiens
[6] = test system: p53 signaling (p53RE-bla HCT-116 cells); remark: listed apart in the source
[7] = test system: p53 signaling (p53RE-bla HCT-116 cells); experiment: cells; settings: Homo sapiens; remark: listed apart in the source
[8] = HCT-116, read-out: p53 activation EC50, cherry pick confirmation
[9] = HCT-116, read-out: p53 activation efficacy, cherry pick confirmation

COP(=S)(OC)Oc1ccc([N+](=O)[O-])c(C)c1 [Fenitrothion]
p53 activation EC50, cherry pick confirmation [1]: inactive | p53 activation EC50, primary screening [1]: inactive | p53 activation efficacy, cherry pick confirmation [1]: inactive | p53 activation efficacy, primary screening [1]: inactive | EC50 [2]: 4.18 µM | EC50 [3]: 10.4 µM | p53 activation EC50, cherry pick confirmation [4]: inactive | p53 activation EC50, primary screening [4]: inactive | p53 activation efficacy, cherry pick confirmation [4]: inactive | p53 activation efficacy, primary screening [4]: inactive | Viability EC50, cherry pick confirmation (p53RE-bla HCT-116 cells): inactive | Viability EC50, primary screening (p53RE-bla HCT-116 cells): inactive | Viability efficacy, cherry pick confirmation (p53RE-bla HCT-116 cells): inactive | Viability efficacy, primary screening (p53RE-bla HCT-116 cells): inactive | EC50 ([5]; HCT-116): 9.91 µM | Emax ([5]; HCT-116, read-out: efficacy): 116% | EC50 [5, 8]: 9.34 µM | EC50 ([5]; HCT-116, read-out: p53 activation EC50, primary screening): 2.58 µM | Emax [5, 9]: 93.3% | Emax ([5]; HCT-116, read-out: p53 activation efficacy, primary screening): 59.9%

c1ccc2cc3c(cc2c1)-c1cccc2cccc-3c12 [Benzo(k)fluoranthene]
p53 activation Efficacy, No MS [1]: 189.362% and 164.004% | EC50 ([1]; Homo sapiens, HCT-116, read-out: p53 activation EC50, No MS): 8.42 µM | EC50 ([1]; read-out: p53 activation EC50, No MS): 12.2 µM | EC50 [2]: 10.4 µM | EC50 [3]: 32.9 µM | Viability EC50, HLM (p53RE-bla HCT-116 cells): inactive | Viability EC50, No MS (p53RE-bla HCT-116 cells): inactive | Viability EC50, RLM (p53RE-bla HCT-116 cells): inactive | Viability Efficacy, HLM (p53RE-bla HCT-116 cells): inactive | Viability Efficacy, No MS (p53RE-bla HCT-116 cells): inactive | Viability Efficacy, RLM (p53RE-bla HCT-116 cells): inactive | EC50 ([5]; HCT-116): 37 µM | Emax ([5]; HCT-116, read-out: efficacy): 565%

COP(N)(=S)Oc1ccccc1C(=O)OC(C)C (stereo not drawn) [Isocarbophos]
p53 activation EC50, primary screening [1]: inactive | p53 activation efficacy, primary screening [1]: inactive | EC50 ([1]; Homo sapiens, HCT-116, read-out: p53 activation EC50, cherry pick confirmation): 2.05 µM | Emax ([1]; Homo sapiens, HCT-116, read-out: p53 activation efficacy, cherry pick confirmation): 32.4% | EC50 [2]: 25.6 µM | EC50 [3]: 1.86 µM | p53 activation EC50, cherry pick confirmation [4]: inactive | p53 activation efficacy, cherry pick confirmation [4]: inactive | Viability EC50, cherry pick confirmation (p53RE-bla HCT-116 cells): inactive | Viability EC50, primary screening (p53RE-bla HCT-116 cells): inactive | Viability efficacy, cherry pick confirmation (p53RE-bla HCT-116 cells): inactive | Viability efficacy, primary screening (p53RE-bla HCT-116 cells): inactive | EC50 ([5]; HCT-116): 4.93 µM | Emax ([5]; HCT-116, read-out: efficacy): 83.1% | EC50 [5, 8]: 3.72 µM | Emax [5, 9]: 78.7%

N=C(N)NC(=O)c1nc(Cl)c(N)nc1N [Amiloride hydrochloride]
p53 activation EC50, No MS [1]: inactive | p53 activation Efficacy, No MS [1]: inactive | p53 activation EC50, RLM [6]: inactive | p53 activation Efficacy, RLM [6]: inactive | p53 activation EC50, HLM [4]: inactive | Viability EC50, HLM (p53RE-bla HCT-116 cells): inactive | Viability EC50, No MS (p53RE-bla HCT-116 cells): inactive | Viability EC50, RLM (p53RE-bla HCT-116 cells): inactive | Viability Efficacy, HLM (p53RE-bla HCT-116 cells): inactive | Viability Efficacy, No MS (p53RE-bla HCT-116 cells): inactive | Viability Efficacy, RLM (p53RE-bla HCT-116 cells): inactive | EC50 ([7]; HCT-116, read-out: p53 activation EC50, HLM): 38.7 µM

COC(=O)N(OC)c1ccccc1COc1ccn(-c2ccc(Cl)cc2)n1 [Pyraclostrobin]
p53 activation efficacy [1]: 41.5523 | Emax ([1]; Homo sapiens, HCT-116, read-out: p53 activation efficacy): 36.4% | EC50 ([1]; read-out: p53 activation EC50): 2.62 µM | p53 activation EC50 [6]: inactive | p53 activation efficacy [6]: inactive | p53 activation EC50 [4]: inactive | Viability EC50 (p53RE-bla HCT-116 cells): inactive | Viability efficacy (p53RE-bla HCT-116 cells): inactive | Emax ([7]; HCT-116, read-out: p53 activation efficacy): 36.3%

COP(=O)(OC)O/C(=C\Cl)c1cc(Cl)c(Cl)cc1Cl [Tetrachlorvinphos (Gardona), Tetrachlorvinphos]
EC50 [2]: 2.53 µM | EC50 [3]: 18.1 µM | EC50 ([5]; HCT-116): 10.5 µM | Emax ([5]; HCT-116, read-out: efficacy): 39.9%

CCOP(=S)(OCC)SC(CCl)N1C(=O)c2ccccc2C1=O (stereo not drawn) [Dialifor]
p53 activation EC50 [1]: inactive | p53 activation efficacy [1]: inactive | p53 activation efficacy [6]: 52.0707 | p53 activation EC50 [4]: inactive | Viability EC50 (p53RE-bla HCT-116 cells): inactive | Viability efficacy (p53RE-bla HCT-116 cells): inactive | EC50 ([7]; HCT-116, read-out: p53 activation EC50): 3.03 µM

CCOP(=S)(OCC)SCSP(=S)(OCC)OCC [Ethion]
p53 activation EC50 [1]: inactive | p53 activation efficacy [1]: inactive | EC50 [2]: 5.91 µM | EC50 [3]: 3.29 µM | p53 activation efficacy [6]: 48.0253 | EC50 ([6]; read-out: p53 activation EC50): 2.04 µM | p53 activation EC50 [4]: inactive | Viability EC50 (p53RE-bla HCT-116 cells): inactive | Viability efficacy (p53RE-bla HCT-116 cells): inactive | EC50 ([5]; HCT-116): 6.2 µM | Emax ([5]; HCT-116, read-out: efficacy): 53.8%

Oc1c(Cl)c(Cl)cc(Cl)c1Cl [2,3,5,6-Tetrachlorophenol]
EC50 ([1]; Homo sapiens, HCT-116, read-out: EC50, p53 activation, cherry pick confirmation): 29.5 µM | EC50 ([1]; Homo sapiens, HCT-116, read-out: EC50, p53 activation, primary screening): 24.6 µM | Emax ([1]; Homo sapiens, HCT-116, read-out: Efficacy, p53 activation, cherry pick confirmation): 31.3% | Emax ([1]; Homo sapiens, HCT-116, read-out: Efficacy, p53 activation, primary screening): 36.3% | EC50, p53 activation, cherry pick confirmation [6]: inactive | EC50, p53 activation, primary screening [6]: inactive | Efficacy, p53 activation, cherry pick confirmation [6]: inactive | Efficacy, p53 activation, primary screening [6]: inactive | EC50, p53 activation, cherry pick confirmation [4]: inactive | Efficacy, p53 activation, cherry pick confirmation [4]: inactive | EC50, viability, cherry pick confirmation (p53RE-bla HCT-116 cells): inactive | EC50, viability, primary screening (p53RE-bla HCT-116 cells): inactive | Efficacy, viability, cherry pick confirmation (p53RE-bla HCT-116 cells): inactive | Efficacy, viability, primary screening (p53RE-bla HCT-116 cells): inactive | EC50 ([7]; HCT-116, read-out: EC50, p53 activation, primary screening): 21 µM | Emax ([7]; HCT-116, read-out: Efficacy, p53 activation, primary screening): 35.1%
